Experimental data reported in patent publication US20220380383A1, “NEUROPROTECTIVE PDI MODULATING SMALL MOLECULES AND METHODS OF USE THEREOF” (THE TRUSTEES OF COLUMBIA UNIVERSITY IN THE CITY OF NEW YORK, priority 2018, published 2022).
≈ marks a conversion by molar mass, not a printed value. Like-named read-outs stand apart in the source and are kept apart here.

Key:
[1] = tested on: neuronal redox state (roGFP2); assay: roGFP2 redox reporter in primary neurons; format: cell-based; settings: 30 min treatment
Method: […]. Rat coronal brain slice explants co-transfected with YFP and Tau-4R (FIG. 16B) or striatal brain slice explants co-transfected with YFP and mHTT (FIG. 16C) were treated with LC-43 or DMSO carrier-only for 3 days. The respective regions of each brain slice were then scored for numbers of healthy (FIG. 16B) pyramidal or (FIG. 16C) medium spiny neurons remaining. Data are normalized to the negative control condition set to 100% and plotted as means±SEM. In FIG. 16D, The confocal images shown are maximal z-stacks of 0.5 μm steps (˜20 images per stack). (Bottom) Reduction of neuronal redox state by LC-43. Left, Primary neurons were co-transfected with mCherry (to positively identify transfected neurons) and the genetically encoded ratiometric redox reporter roGFP2. Four days later, the culture medium was changed into an identical formulation except without conventional antioxidant additives. 24 hours after this medium change, LOC-43 or DMSO carrier-only were added to the neurons and images were taken after 30 minutes or 24 hours of treatment as indicated. Imaging was done using a Leica SP5 inverted confocal microscope through a 63× water-immersion objective. Images of 40 individual neurons for each condition were collected at 405 and 488 nm and analysis of the 405/488 ratio for each image pair was done using CellProfiler (Broad Institute).
As mentioned, we synthesized several fluorine-containing analogs of LOC14 (analogs LC-43 and LC-40). Addition of fluorine was the only modification that was tolerated at the ortho position without a complete loss of activity in cells and in targeting PDI in vitro (Table 9). […] Additionally, we evaluated LC-43 using a genetically encoded redox reporter transfected into neurons. […] In contrast, treatment with the non-selective reducing agent dithiothreitol (DTT) produces an immediate and dramatic reduction in the roGFP2 fluorescence ratio that leads rapidly to cell degeneration and death (FIG. 16D). […]

[2] = molecular target: T1, human catalytic PDI A1 a domain (PDIa) (Homo sapiens, UniProt P07237); assay: Isothermal titration calorimetry (ITC) binding to PDIa
T1 construct: made in house; host or cells: Escherichia coli BL21-Gold (DE3)
Method: All ITC experiments were carried out at 25° C. on MicoCal Auto-ITC200 system (GE Healthcare). […] ITC titration experiments were carried out at 25° C. with 19 injections, 2 μl per injection, and 180 seconds between each injection. The reference cell power was set to 5 μcal/sec. A control experiment was performed for each compound, where each compound was titrated into buffer to account for heat released due to dilution. This background was subtracted from test data before a final dissociation constant was obtained. […] Gibbs free energy, ΔG, was calculated from equation ΔG=ΔH-TΔS. All other parameters, Ka, n, ΔH, ΔS, were determined directly from the titration data.
LOC14 analogs were designed and synthesized as described in the synthetic schemes. The analogs were evaluated for their binding to PDIa using isothermal titration calorimetry (ITC) (results of certain compounds are shown in FIGS. 1A-1E). Next, the analogs were tested for their ability to rescue PC12 cells from mHTT^Q103 induced cell death in a dose-dependent manner (results of certain compounds are shown in FIG. 2).

PC12 mHTTQ103 cells = assay: Rescue of PC12 cells from mHTTQ103-induced cell death; format: cell-based, rat; settings: for EC50: Rattus norvegicus
PDI = PDI (Homo sapiens, UniProt P07237); assay: Enzymatic assay for inhibition of PDI using insulin as substrate; format: biochemical
[3] = Solubility (stock solvent)
[4] = tested on: uninduced PC12 cells not expressing mHTTQ103; assay: General cell toxicity in PC12 cell culture assay; format: cell-based
Method: Neuroprotection was assessed by each compound's ability to rescue cells from mutant-huntingtin-induced cell death (“Ind Q103” cells; blue). General cell toxicity of each compound was assessed in uninduced cells not expressing mutant-huntingtin protein (“Unind Q103” cells; red). NMP, DMSO, LOC14 in NMP and LOC14 in DMSO were used as controls.
Data from cells induced to express mHTT^Q103 (blue) and cells not expressing mHTT^Q103 (red) are plotted as mean percent of DMSO-treated uninduced cells±SD with n=3.
The follow-up testing of primary screen hits was performed in a similar way. Fresh powder stocks of primary hits were re-ordered from vendors, dissolved in DMSO and tested in a two-fold serial dilution across 10 wells in both tebufenozide-induced and uninduced PC12 mHTT^Q103 cells. Dose-response curves were plotted as mean±SD and fit to either four-parameter sigmoidal (for uninduced cells) or bell-shaped (induced) function using Prism (GraphPad Software).

physchem = settings: organic solvent or mixture
15N-labeled PDIa = molecular target: T2, 15N-labeled PDIa (Homo sapiens, UniProt P07237); assay: 1H-15N HSQC NMR of PDIa; format: binding
T2 construct: His6 (N, cleaved yes); made in house; host or cells: Escherichia coli BL21-Gold (DE3), M9 minimal medium with 15NH4Cl
Method: The ^1H-^15N HSQC spectra were performed on Bruker Avance III 500 Ascend (500 MHz) spectrometers at 300 K. The uniformly ^15N-labeled PDIa was dissolved at 50 μM or 100 μM in 90% H2O/10% D20 (v/v), pH 5.1. The ^1H carrier frequency was positioned at the water resonance. The ^15N carrier frequency was positioned at 115 ppm. The spectral width in the ^1H dimension was 7500 Hz and the width in ω1 (^15N) dimension was 1824.6 Hz. Suppression of water signal was accomplished using the WATERGATE sequence. Heteronuclear decoupling was accomplished using GARP decoupling scheme.

[5] = rescue from mHTTQ103 induced cell death
[6] = Tables 5-13, solvent not given (DMSO in Table 1)
[7] = PC-12, Tables 5-13, PC12 cells, read-out: EC50
[8] = N/A = not active, read-out: ITC KD
[9] = Tables 5-13, NA = not active, read-out: Kd
[10] = PC-12, rescue from mHTTQ103 induced cell death, read-out: PC12 cells EC50

T2 sequence (P07237 18-134): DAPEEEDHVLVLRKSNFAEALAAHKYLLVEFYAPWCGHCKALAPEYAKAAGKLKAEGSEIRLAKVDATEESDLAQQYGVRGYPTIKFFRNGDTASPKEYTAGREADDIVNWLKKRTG
T1 sequence (P07237 18-134): as above
Chain of PDI (P07237 18-508): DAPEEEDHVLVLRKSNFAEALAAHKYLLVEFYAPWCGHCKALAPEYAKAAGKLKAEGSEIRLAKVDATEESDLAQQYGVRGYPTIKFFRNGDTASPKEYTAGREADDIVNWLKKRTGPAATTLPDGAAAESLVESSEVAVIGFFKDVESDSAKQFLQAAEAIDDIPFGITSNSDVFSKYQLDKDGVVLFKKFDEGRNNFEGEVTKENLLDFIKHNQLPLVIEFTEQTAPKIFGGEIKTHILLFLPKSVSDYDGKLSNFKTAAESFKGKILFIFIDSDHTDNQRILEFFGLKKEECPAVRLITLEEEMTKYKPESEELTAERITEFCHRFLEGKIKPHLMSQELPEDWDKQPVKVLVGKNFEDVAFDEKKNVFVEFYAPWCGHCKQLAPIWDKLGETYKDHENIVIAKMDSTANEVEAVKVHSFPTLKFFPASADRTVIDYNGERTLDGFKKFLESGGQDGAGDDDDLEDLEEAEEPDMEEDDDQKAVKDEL

Row | SMILES | Max Viability (%) (PC12 mHTTQ103 cells; Tables 5-13, PC12 cells) | PC12 cells Max % Viability (PC12 mHTTQ103 cells; [5]) [%] | inhibition of enzymatic (reductase) activity of PDI (PDI) | Solubility [3] [mM in DMSO] | binding to PDI by ITC [2] | ITC KD ([2]; N/A = not active) | EC50 (PC12 mHTTQ103 cells; [7]) [nM] | toxicity in PC12 cell culture assay [4] | Solubility (physchem) [mM] | Kd [2, 9] [nM] | EC50 (PC12 mHTTQ103 cells; [10]) [nM] | also measured
1 | O[C@H](CS)[C@H](O)CS (racemic) [DTT, dithiothreitol, reference compound] | – | – | – | – | – | – | – | – | – | – | – | neuronal redox state (roGFP2) [1]: immediate and drastic reduction
2 | O=c1c2ccccc2sn1-c1ccccc1 [LC-24] | 31 | 30.83 | did not inhibit PDI's reductase activity | – | – | – | – | – | – | – | – | Kd ([2]; Tables 6, 11, 12, read-out: Kd (nM), first value of two-site binding): 8 nM; Kd ([2]; Tables 6, 11, 12, read-out: Kd (nM), second value of two-site binding): 1140 nM; Kd ([2]; read-out: KD2): 1140 nM; EC50 (PC12 mHTTQ103 cells; PC-12): 1130 nM; EC50 (PC12 mHTTQ103 cells; PC-12, read-out: PC12 cells EC50): 1130 nM
3 | Cc1ccc(-n2sc3ccccc3c2=O)c(Br)c1 [LC-36] | 15 | – | did not inhibit PDI's reductase activity | – | – | – | – | – | – | – | – | Solubility [3, 6]: 100 mM (≈ 32 mg/mL); Kd ([2]; read-out: KD2): 25 nM
4 | O=c1[nH]sc2c(F)cccc12 [LC-40, 7-fluorobenzo[d]isothiazol-3(2H)-one] | 72 | 72.31 | able to inhibit the enzymatic activity of PDI | 100 | showed no binding to the protein by ITC | KD = N/A irreversible or not active | 9320 | decreased cellular toxicity | – | – | – | Solubility [3, 6]: 100 mM (≈ 16.9 mg/mL)
5 | Cc1cc(C)c2c(=O)[nH]sc2n1 [LC-50] | 65 | 65.19 | – | 100 | – | – | 5180 | complete loss of toxicity | 100 (≈ 18 mg/mL) | 3830 | 5180 | Kd [2, 8]: 3830 nM
6 | Cc1nc2s[nH]c(=O)c2c(C)c1C [LC-51] | 63 | 63.14 | did inhibit the enzymatic activity of PDI | – | could not be detected by ITC | KD = N/A irreversible or not active | 2200 | complete loss of toxicity | – | – | – | chemical shift changes in PDIa (1H-15N HSQC) (15N-labeled PDIa): induced the same chemical shifts in PDI as LOC14
7 | Cc1nc2sn(CN3CCN(C(=O)C4CC4)CC3)c(=O)c2c(C)c1C [LC-52] | 68 | 68.30 | did inhibit the enzymatic activity of PDI | – | could not be detected by ITC | KD = N/A irreversible or not active | 3570 | complete loss of toxicity | – | – | – | chemical shift changes in PDIa (1H-15N HSQC) (15N-labeled PDIa): induced the same chemical shifts in PDI as LOC14
8 | Cc1cc(C)c2c(=O)n(CN3CCN(C(=O)C4CC4)CC3)sc2n1 [LC-53] | 67 | 67.25 | did inhibit the enzymatic activity of PDI | – | could not be detected by ITC | KD = N/A irreversible or not active | 4250 | complete loss of toxicity | – | – | 4250 | chemical shift changes in PDIa (1H-15N HSQC) (15N-labeled PDIa): induced the same chemical shifts in PDI as LOC14
9 | Cc1nnc2sn(CN3CCN(C(=O)C4CC4)CC3)c(=O)c2c1C [LC-59] | 59 | 59.20 | – | 100 | – | – | 10600 | – | 100 (≈ 34.7 mg/mL) | 8 | 10600 | Kd [2, 8]: 8.2 nM
10 | O=c1c2ccccc2sn1CN1CC[C@@H](O)C1 [LC-65, (R)-2-((3-hydroxypyrrolidin-1-yl)methyl)benzo[d]isothiazol-3(2H)-one] | 77 | 77.01 | – | 100 | – | – | 456 | – | 100 (≈ 25 mg/mL) | 162 | 456 | Kd [2, 8]: 162 nM
11 | Cc1cc(C)c2c(=O)n(CN3CCN(Cn4sc5nc(C)cc(C)c5c4=O)CC3)sc2n1 [LC-70, 2,2′-(piperazine-1,4-diylbis(methylene))bis(4,6-dimethylisothiazolo[5,4-b]pyridin-3(2H)-one)] | 59 | 59.18 | – | – | – | – | 3090 | – | – | 3800 | 3090 | Solubility (physchem; NMP (N-Methyl-2-Pyrrolidine)): 5 mM (≈ 2.35 mg/mL); Solubility (physchem; NMP): 5 mM (≈ 2.35 mg/mL); Kd ([2]; FIG. 1, PDI A1a titrated into compound in 0.8% NMP, read-out: Kd1): 3800 nM; Kd ([2]; read-out: ITC KD): 3800 nM
12 | O=c1c2cccnc2sn1CO [LC-73, 2-(hydroxymethyl)isothiazolo[5,4-b]pyridin-3(2H)-one] | 63 | 63.16 | – | 100 | – | – | 2480 | – | 100 (≈ 18.2 mg/mL) | – | 2480 | Kd ([2]; FIG. 1, PDI A1a titrated into compound in DMSO, read-out: Kd): 9.8 nM; Kd ([2]; ITC assay, read-out: KD): 10 nM
